Our source for the IC50 values is patent publication US12421222B2 (AUGUSTINE THERAPEUTICS, priority 2021, dated 2025).

As a reminder, the IC50 is the concentration at which inhibition is half-maximal.

For this assay, the system named is acetylated tubulin (Lys40) in HeLa cells. The assay can be described thus: Acetylated α-tubulin measurement in vitro (immunocytochemistry). The class given is cell-based. The following applies: Homo sapiens, 6 hours incubation, acetylated tubulin (Lys40) by immunocytochemistry, read-out: IC50 (Tubulin deacetylation). Here is the method:
HeLa cells were cultured in UltraCulture serum-free medium (Lonza) supplemented with 2 mM glutamine (Lonza). Assays were performed at 96-well or 384-well format, differences in assay protocols are detailed in Table 6. Cells per well were plated and incubated overnight at 37° C. overnight in a humidified atmosphere containing 5% CO2. Cell density and seeding volumes are detailed in Table 6. Compounds (dissolved in 100% DMSO) or DMSO (vehicle) were added manually by diluting them in culture medium at 10× final assay concentration and adding 10 μL to cells (96-well protocol). Alternatively, 50 nL compound was added directly to the cell culture using the Echo650 (Labcyte) (384-well protocol). In this assay, the final assay concentration of DMSO is 0.1%-0.4%. Trichostatin A (TSA) was used as a positive control. Cells were incubated with compounds at 37° C. in a humidified atmosphere containing 5% CO2 for 6 hours. Levels of acetylated tubulin (Lys40) were assessed by immunocytochemistry using target-specific antibodies. Cells were fixed with 4% PFA at RT as detailed in Table 6. After 2-3 wash steps with PBS, cells were permeabilized with 0.5% Triton in PBS at RT for 10 minutes followed by 1-2 washes with PBS. To avoid non-specific antibody staining, cells were blocked with 3% BSA in PBS at room temperature for 1 hour. […] Cells were washed 2-3 times with PBS and labelled for 1 h at RT with goat anti-mouse conjugated with Alexa 647 (Thermofisher) and goat anti-rabbit conjugated with Alexa 555 (Thermofisher) secondary antibodies, diluted in 1% BSA to a final concentration of 1:1000. Simultaneously, nuclei were stained with 1:10000-1:15000 Hoechst (Thermofisher). Incubation time and temperature of the primary antibodies are detailed in Table 6. Cells were washed 2-3 times with PBS and they were imaged with the Operetta CLS or Opera Phenix (PerkinElmer). Imaging is further detailed in Table 6. For imaging analysis, the Harmony analysis software (PerkinElmer) was used. Cytoplasmic (defined by total α-tubulin staining) intensities per well were used for α-tubulin (acetylated and total) quantification. Intensities were measured per cell and then averaged per well. Mean intensity levels of acetylated tubulin were normalized to the mean intensity levels of total tubulin. The changes in acetylated tubulin were normalized for each plate using GraphPad Prism software: tubulin acetylation in vehicle (DMSO)-treated cells were set to 0% while tubulin acetylation in TSA-treated cells were set to 100%. EC50 values were calculated using the log(inhibitor) vs. response—Variable slope (four parameters) nonlinear regression in GraphPad Prism software.
In the case of `COc1cnc2nc(C)nc(SCC(=O)c3ccc(CN(C)C(=O)CO)s3)c2c1` [Example 162, 2-hydroxy-N-((5-(2-((6-methoxy-2-methylpyrido[2,3-d]pyrimidin-4-yl)thio)acetyl)thiophen-2-yl)methyl)-N-methylacetamide], the concentration for half-maximal inhibition (IC50) was 100 to 500 nM. The result for `Cc1nc(SCC(=O)c2ccc(CNC(=O)CO)s2)c2cc(N3CCCOCC3)ccc2n1` [Example 83, 2-hydroxy-N-((5-(2-((2-methyl-6-(1,4-oxazepan-4-yl)quinazolin-4-yl)thio)acetyl)thiophen-2-yl)methyl)acetamide] reads not above 100 nM. Next, `Cn1cc2c(SCC(=O)c3ccc(CNC(=O)C4CC4(F)F)s3)nc(C(F)(F)F)nc2n1` (stereo not shown) [Example 111, 2,2-difluoro-N-((5-(2-((2-methyl-6-(trifluoromethyl)-2H-pyrazolo[3,4-d]pyrimidin-4-yl)thio)acetyl)thiophen-2-yl)methyl)cyclopropane-1-carboxamide]: 100 to 500 nM; `C[C@H](NC(=O)CO)c1ccc(C(=O)CSc2nc(C(F)(F)F)nc3c2cnn3C)s1` [Example 130, (S)-2-hydroxy-N-(1-(5-(2-((1-methyl-6-(trifluoromethyl)-1H-pyrazolo[3,4-d]pyrimidin-4-yl)thio)acetyl)thiophen-2-yl)ethyl)acetamide]: 100 to 500 nM; `Cc1nc(SCC(=O)c2ccc(CNC(=O)CO)s2)c2cn(C)nc2n1` [Example 65, N-((5-(2-((2,6-dimethyl-2H-pyrazolo[3,4-d]pyrimidin-4-yl)thio)acetyl)thiophen-2-yl)methyl)-2-hydroxyacetamide]: 1000 to 3330 nM. Next, `Cn1cc2c(SCC(=O)c3ccc(CNC(=O)CO)s3)nc(C(F)F)nc2n1` [Example 69, N-((5-(2-((6-(difluoromethyl)-2-methyl-2H-pyrazolo[3,4-d]pyrimidin-4-yl)thio)acetyl)thiophen-2-yl)methyl)-2-hydroxyacetamide]: 100 to 500 nM; `CS(=O)(=O)N1CCC(c2ccc(C(=O)CSc3nc(C(F)(F)F)nc4ccccc34)s2)C1` (stereo not shown) [Example 95, 1-(5-(1-(methylsulfonyl)161yrrolidine-3-yl)thiophen-2-yl)-2-((2-(trifluoromethyl)quinazolin-4-yl)thio)ethanone]: 500 to 1000 nM. As to `O=C(CO)NCc1ccc(C(=O)CSc2nc3ncc(C(F)(F)F)cc3o2)s1` [Example 118, 2-hydroxy-N-((5-(2-((6-(trifluoromethyl)oxazolo[4,5-b]157yrrolid-2-yl)thio)acetyl)thiophen-2-yl)methyl)acetamide], the IC50 is 100 to 500 nM. Next, `O=C(CO)NCc1ccc(C(=O)CSc2nccn3cncc23)s1` [Example 181, 2-hydroxy-N-((5-(2-(imidazo[1,5-a]pyrazin-8-ylthio)acetyl)thiophen-2-yl)methyl)acetamide]: 100 to 500 nM; `Cc1nc(SCC(=O)c2ccc(CNC(=O)CO)s2)c2cc(N3CCCCC3)ccc2n1` [Example 82, 2-hydroxy-N-((5-(2-((2-methyl-6-(piperidin-1-yl)quinazolin-4-yl)thio)acetyl)thiophen-2-yl)methyl)acetamide]: not above 100 nM; `Cc1nc(SCC(=O)c2ccc(CNC(=O)CO)s2)c2cc(N(C)C)ncc2n1` [Example 149, N-((5-(2-((6-(dimethylamino)-2-methylpyrido[3,4-d]pyrimidin-4-yl)thio)acetyl)thiophen-2-yl)methyl)-2-hydroxyacetamide]: not above 100 nM. Next, `COc1ccc2nc(C(F)(F)F)nc(SCC(=O)c3ccc(CNC(=O)CO)s3)c2c1` [Example 80, 2-hydroxy-N-((5-(2-((6-methoxy-2-(trifluoromethyl)quinazolin-4-yl)thio)acetyl)thiophen-2-yl)methyl)acetamide]: 100 to 500 nM. The result for `COc1ccc2nc(C)nc(SCC(=O)c3ccc(CNC(=O)C(C)(C)C)s3)c2c1` [Example 17, N-((5-(2-((6-methoxy-2-methylquinazolin-4-yl)thio)acetyl)thiophen-2-yl)methyl)pivalamide] reads 500 to 1000 nM; that for `Cc1nc(SCC(=O)c2ccc(CNC(=O)C(C)(C)C)s2)c2cc(F)ccc2n1` [Example 9, N-((5-(2-((6-fluoro-2-methylquinazolin-4-yl)thio)acetyl)thiophen-2-yl)methyl)pivalamide], 1000 to 3330 nM; that for `COc1ccc2nc(C)nc(SCC(=O)c3ccc(CNC(=O)CO)s3)c2c1F` [Example 158, N-((5-(2-((5-fluoro-6-methoxy-2-methylquinazolin-4-yl)thio)acetyl)thiophen-2-yl)methyl)-2-hydroxyacetamide], 100 to 500 nM. On to `Cn1ncc2c(SCC(=O)c3ccc(CNC(=O)C(C)(C)C)s3)nc(C(F)(F)F)nc21` [Example 20, N-((5-(2-((1-methyl-6-(trifluoromethyl)-1H-pyrazolo[3,4-d]pyrimidin-4-yl)thio)acetyl)thiophen-2-yl)methyl)pivalamide], for which the IC50 was 100 to 500 nM.

For `Cc1nc(SCC(=O)c2ccc(CNC(=O)CO)s2)c2cc(OC3CC3)ccc2n1` [Example 77, N-((5-(2-((6-cyclopropoxy-2-methylquinazolin-4-yl)thio)acetyl)thiophen-2-yl)methyl)-2-hydroxyacetamide], the 50% inhibitory concentration (IC50) is 100 to 500 nM. Turning to `CCOc1cnc2nc(C)nc(SCC(=O)c3ccc(CNC(=O)CO)s3)c2c1` [Example 160, N-((5-(2-((6-ethoxy-2-methylpyrido[2,3-d]pyrimidin-4-yl)thio)acetyl)thiophen-2-yl)methyl)-2-hydroxyacetamide], the IC50 was not above 100 nM. As for `COCCn1ncc2c(SCC(=O)c3ccc(CNC(=O)CO)s3)nc(C(F)(F)F)nc21` [Example 125, 2-hydroxy-N-((5-(2-((1-(2-methoxyethyl)-6-(trifluoromethyl)-1H-pyrazolo[3,4-d]pyrimidin-4-yl)thio)acetyl)thiophen-2-yl)methyl)acetamide], the 50% inhibitory concentration (IC50) was not above 100 nM.

With `COc1ccc2nc(C)nc(SCC(=O)c3ccc(CNC(=O)C4(O)CC4)s3)c2c1` [Example 50, 1-hydroxy-N-((5-(2-((6-methoxy-2-methylquinazolin-4-yl)thio)acetyl)thiophen-2-yl)methyl)cyclopropane-1-carboxamide], the half-inhibitory concentration (IC50) was 100 to 500 nM. Turning to `CCc1nc(SCC(=O)c2ccc(CNC(=O)CO)s2)c2ccccc2n1` [Example 62, N-((5-(2-((2-ethylquinazolin-4-yl)thio)acetyl)thiophen-2-yl)methyl)-2-hydroxyacetamide], the IC50 is 100 to 500 nM.

As to `O=C(CO)NCc1ccc(C(=O)CSc2nc3ccc(C(F)(F)F)nc3o2)s1` [Example 117, 2-hydroxy-N-((5-(2-((5-(trifluoromethyl)oxazolo[5,4-b]157yrrolid-2-yl)thio)acetyl)thiophen-2-yl)methyl)acetamide], the IC50 was not above 100 nM. The result for `Cc1nc(SCC(=O)c2ccc(CNC(=O)CO)s2)c2c(F)c(Cl)ccc2n1` [Example 146, N-((5-(2-((6-chloro-5-fluoro-2-methylquinazolin-4-yl)thio)acetyl)thiophen-2-yl)methyl)-2-hydroxyacetamide] reads 100 to 500 nM; that for `O=C(CO)NCc1ccc(C(=O)CSc2nccn3nccc23)s1` [Example 182, 2-hydroxy-N-((5-(2-(pyrazolo[1,5-a]pyrazin-4-ylthio)acetyl)thiophen-2-yl)methyl)acetamide], 500 to 1000 nM; that for `O=C(CO)NCc1ccc(C(=O)CSc2nc(C(F)(F)F)nc3c2cnn3C2CC2)s1` [Example 133, N-((5-(2-((1-cyclopropyl-6-(trifluoromethyl)-1H-pyrazolo[3,4-d]pyrimidin-4-yl)thio)acetyl)thiophen-2-yl)methyl)-2-hydroxyacetamide], 100 to 500 nM.

For `Cc1cc2nc(C(F)(F)F)nc(SCC(=O)c3ccc(CNC(=O)CO)s3)n2n1` [Example 107, 2-hydroxy-N-((5-(2-((7-methyl-2-(trifluoromethyl)pyrazolo[1,5-a][1,3,5]triazin-4-yl)thio)acetyl)thiophen-2-yl)methyl)acetamide], the IC50 is 100 to 500 nM. The result for `Cn1ncc2c(SCC(=O)c3ccc(CNC(=O)C4CC4)s3)ncnc21` [Example 31, N-((5-(2-((1-methyl-1H-pyrazolo[3,4-d]pyrimidin-4-yl)thio)acetyl)thiophen-2-yl)methyl)cyclopropanecarboxamide] reads 1000 to 3330 nM; that for `COc1ccc2nc(C(F)(F)F)nc(SCC(=O)c3ccc(CNC(=O)C(C)(C)O)s3)c2c1` [Example 134, 2-hydroxy-N-((5-(2-((6-methoxy-2-(trifluoromethyl)quinazolin-4-yl)thio)acetyl)thiophen-2-yl)methyl)-2-methylpropanamide], 100 to 500 nM.
